Measurements published in US20240331158A1, “CELL PAINTING AND ANALYSIS IN 3D CELLULAR MODELS” (priority 2023, published 2024).
Structures can show the parent of a compound that is named as a salt. Where two headings read alike, the source gives them in different places.

Key:
TU-BcX-4IC 3D cultures [1] = experiment: Imaging read-out, 3D culture; conditions: Homo sapiens, 120 h, read-out: EC50, Imaging 3D
Procedure: (§1) Cell metabolism may be measured by ATP level as another readout for effects of anti-cancer drugs that is related to cytotoxicity. In the present examples, a subset of 12 compounds were used for evaluation of compound effects, using the CellTiter-Glo 3D assay (Promega), which detects ATP levels. Compounds may be tested using 7 point 5× dilutions starting from 100 uM. In the present examples, compound effects on 2D culture and 3D cultures were compared, using imaging and CellTiter-Glo 3D methods. Cultures were set up in parallel, using same cell number (2000). Cultures were allowed to grow for 48 hours, then treated with compounds for 5 days.
(§2) Images were analyzed using MetaXpress Software (Molecular Devices). Count Nuclei or Cell Scoring application modules were used for nuclear count live/dead assessment, or evaluation of cell number positive for specific markers. Output measurements included spheroid width, spheroid area, average intensity for calcein AM or EthD-III, counts of all nuclei, and evaluation of average nuclear size and average intensities. In addition, calcein AM-positive cells were counted, and their area and intensity values were recorded. In addition to cell count, areas and intensities could be determined for live (EthD-III negative) and dead (EthD-III positive) cells.

TU-BcX-4IC 2D culture [2] = experiment: CellTiter-Glo 3D ATP assay, 2D culture; conditions: Homo sapiens, TU-BcX-4IC, 120 h, read-out: EC50, ATP 2D
Procedure: (§3) Cell metabolism may be measured by ATP level as another readout for effects of anti-cancer drugs that is related to cytotoxicity. […] Compounds may be tested using 7 point 5× dilutions starting from 100 uM. In the present examples, compound effects on 2D culture and 3D cultures were compared, using imaging and CellTiter-Glo 3D methods. Cultures were set up in parallel, using same cell number (2000). Cultures were allowed to grow for 48 hours, then treated with compounds for 5 days.

TU-BcX-4IC 2D culture [3] = experiment: Imaging read-out, 2D culture; conditions: Homo sapiens, 120 h, read-out: EC50, Imaging 2D
Procedure: as §1, §2

TU-BcX-4IC 3D cultures [4] = experiment: CellTiter-Glo 3D ATP assay, 3D culture; conditions: Homo sapiens, TU-BcX-4IC, 120 h, read-out: EC50, ATP 3D
Procedure: as §3

TU-BcX-4IC tumoroids [5] = experiment: Secondary follow-up 3D assay, 7-point concentration curves, tumoroid disintegration measurement; format: cell-based, human; conditions: Homo sapiens, TU-BcX-4IC, 120 h
Procedure: 10 compounds, including panobinostat, carfilzomib, and bortezomib were tested across 7 concentrations in the 1-10000 nM range. Spheroids were treated for 5 days with these compounds, then stained as described above (FIG. 4). […] EC50 values (Table 2) were determined using tumoroid disintegration measurement (nuclear count in projection images).
Automated staining of spheroids was performed for one hour. After staining, dye solution was replaced with 1×PBS.

TU-BcX-4IC tumoroids [6] = experiment: Cell Painting assay adapted for 3D tumoroids, phenotypic distance score and cluster analysis; conditions: 10 μM, phenotypic distance relative to DMSO controls
Procedure: For phenotypic profiling, the tumoroids were treated with a single 10 μM concentration of compound, using the methods described above. Notable changes in the staining protocol included increased times for dye incubation, fixation, and permeabilization. […] Images were acquired with Z-stacks using 20× magnification, and the analysis was carried out on projection (maximum) images.
Unlike the previous analysis that included cell count or live-dead evaluation, multiple read-outs may be collected from the whole spheroid to form their phenotypic profile. […] Instead, the spheroid images may also acquired in transmitted light (bright field), and these images may be used to identify the spheroid structures using a deep learning-based image segmentation approach which may improve the analysis. Features extracted from each spheroid may include object morphologies, intensities, and texture measurements for, e.g., the six cell stains and bright field images.
To determine hits from the assay, a phenotypic distance score may be calculated based on the PCA (principal component analysis) components.
This score is a measure of the phenotypic effect of the compounds on the tumoroids relative to the controls. All hits may then be clustered based on their phenotypic profiles using the normalized principal component scores.
To image the organoids labeled with the cell painting dyes, the ImageXpress Confocal HT.ai system, equipped with a laser light source, was used for image acquisition. The confocal mode (pinhole size 60 μm) was used to image organoids with a 20× Plan Apo Lambda, NA 0.75 objective, with z-stacking enabled (5p m step size). The maximum projection image was selected in the acquisition setup.
Images were analyzed using MetaXpress Software (Molecular Devices). […] For the Cell Painting analysis, image analysis was done in the IN Carta image analysis software. To segment the organoids, a deep learning-based model was created based on the TL channel to segment individual organoids. Following segmentation, measurements that include intensity, shape, area, and texture were extracted from all 6 fluorescent channels. In total, 210 analytical features were obtained from each organoid.
The plate was first incubated with MitoTracker DeepRed (500 nM) for 2 hours. The samples were fixed with 4% paraformaldehyde (PFA) in HBSS for 60 minutes. All wash steps were carried out by exchanging half the volume in each well with HBSS to minimize displacement of the organoids from the center of the well.
Measurements from IN Carta were exported as a CSV file and uploaded into StratoMineR (Core Life Analytica), a web-based data analytics platform for hit picking and phenotypic clustering.

TU-BcX-4IC tumoroids [7] = experiment: Label-free transmitted light imaging of tumoroids, deep learning segmentation (IN Carta); format: cell-based, human; conditions: 10 uM, 5 days, no staining, 10× objective
Procedure: Images were analyzed using SYNAP module of InCartasoftware (Molecular Devices). Analysis mask shown in yellow.
A deep learning-based segmentation (IN Carta Image Analysis Software) approach was used to find all tumoroid objects in transmitted light, either intact or affected. Following segmentation and data extraction, a machine learning tool was utilized to classify all tumoroids into intact, intermediate or severely affected categories. Affected tumoroids were flagged by increase in the object areas (criteria were set as AVERAGE 2*STDEV from the DMSO-treated), allowing detection of effective compounds (FIG. 7, Table 6). An advantage of this method is that compound effects could be interrogated in a label-free manner during multiple time points. However, the analysis allowed some ambiguity in determining accurate areas of the objects, especially when the phenotypic changes were weak or moderate (FIG. 7). The endpoint fluorescent imaging and analysis enabled more robust measurements and compound selection (Tables 5 and 6).
Transmitted light (TL) and fluorescent (FL) images were acquired on the ImageXpress Confocal HT.ai High-Content Imaging System (Molecular Devices) and images analyzed using MetaXpress High-Content Image Analysis Software. Tumoroid images were acquired in TL with approximately 60 μm offset. Zstack images were acquired with the 10× objectives using confocal mode. Best focus projection images were used for TL analysis, and maximum projection images were used for FL analysis. MetaXpress Software or IN Carta Image Analysis Software was used for analysis.

TU-BcX-4IC tumoroids [8] = experiment: Library screening of NCI approved anti-cancer drugs: tumoroid integrity/disintegration by nuclear count in projection images (viability/spheroid disintegration assay); conditions: for minimal effective concentration: Homo sapiens, TU-BcX-4IC, 120 h, read-out: Effective concentration, 3D tumoroids, 5 days treatment, tumoroid integrity by nuclear count, tested at 10 nM to 100 uM; for Viability HIT?: also hit in viability/spheroid disintegration assay, 10 μM
Procedure: In addition, positive and negative controls were included in the test plates.
During incubation with compounds, tumoroids were monitored daily using TL imaging. Image analysis allowed characterization of tumoroid size, diameter, compactness, and integrity, as well as optical density (FIG. 2B, FIG. 7). Images of tumoroids were taken prior to compound treatment, and during day 3 and day 5 of compound treatment. For the end point assay, tumoroids were stained with viability and nuclear dyes on day 5 of compound treatment. Cells were stained with a combination of Hoechst, calcein AM, and Ethidium Homodimer III (EthD-III) and analyzed using high content imaging for complex phenotypic analysis; a subset of plates was set aside for additional assays including Cell Painting.
Images of organoids were taken with a 10× objective using Z-stack with a step size of 8 mm. Nuclei, live cells, and dead cells of stained cells were detected using DAPI, FITC, and TexasRed channels respectively. Maximum projection images were created from Z-stacks and analyzed as described in Methods. Multiple read-outs were generated characterizing spheroid area, diameter, intensities, and cell viability. In addition, cells inside each spheroid were counted using a nuclear stain. […] Suspended cells were plated into U-shape 384 well plates using a Biomek i7 automated liquid handler, incubated for 48 hours, and then treated with compounds, stained, and imaged. The protocols for compound additions, media, and staining included gentle media dispensing processes. Consecutively, tumoroids were cultured and monitored by automated imaging. Additionally, use of a collaborative robot enabled moving plates from the incubator to the imaging system, where transmitted light imaging or fluorescent imaging protocols were initiated.
For screening the compound library, maximum projection images may be employed. Spheroid disintegration is visible as an increase of spheroid size, in contrast to nicely shaped, round images of intact spheroids. Tumoroid disintegration can be described by several measurements: for example, increase in organoid area/diameter. Most accurate measurements may be done by counting cells or nuclei inside organoids using maximum projection images. […] Disintegrated tumoroids are made up of cells which are not held together in a tight aggregate but instead are loosely piled up in the well bottom resulting in 1) an increased projected area and 2) an increase in nuclear count in the projection images.
Simple nuclei count analysis in projection images was used as a reliable surrogate marker for organoid integrity/dis-integration.

[9] = 3D assay, 7-point concentration curves, 5 days, nuclear count in projection images, read-out: EC50

Row | SMILES | EC50 (TU-BcX-4IC 3D cultures [1]) [nM] | EC50 (TU-BcX-4IC 2D culture [2]) [nM] | EC50 (TU-BcX-4IC 2D culture [3]) [nM] | EC50 (TU-BcX-4IC 3D cultures [4]) [nM] | EC50 (TU-BcX-4IC tumoroids [5]; [9]) [nM] | Tumoroids effected by compound in transmitted light images (TU-BcX-4IC tumoroids [7]) | other results
1 | Cc1[nH]c2ccccc2c1CCNCc1ccc(/C=C/C(=O)NO)cc1 [Panobinostat] | 141 | 46 | 6 | 84 | 54 |  | 
2 | C/C=C1\NC(=O)[C@H]2CSSCC/C=C/[C@H](CC(=O)N[C@H](C(C)C)C(=O)N2)OC(=O)[C@H](C(C)C)NC1=O [Romidepsin] | < 10 | ~10 | ~10 | ~10 |  |  | EC50 (TU-BcX-4IC tumoroids [5]): 36 nM
3 | COc1c(OCCCN2CCOCC2)ccc2c1N=C(NC(=O)c1cnc(N)nc1)N1CCN=C21 [Copanlisib tris-HCl] |  |  |  |  | 28 | effected by compounds | Distance Score (TU-BcX-4IC tumoroids [6]): 5.147; minimal effective concentration (TU-BcX-4IC tumoroids [8]): 0.1 µM; Viability HIT? (TU-BcX-4IC tumoroids [8]): yes
4 | COc1cccc2c1C(=O)c1c(O)c3c(c(O)c1C2=O)C[C@@](O)(C(=O)CO)C[C@@H]3O[C@H]1C[C@H](N)[C@H](O)[C@H](C)O1 [doxorubicin] |  |  |  |  |  | effected by compounds | Nuclear count in projection images (qualitative) (TU-BcX-4IC tumoroids [8]; 3D tumoroids, 5 days): decrease in counted nuclei
5 | CC(C)C[C@H](NC(=O)[C@H](Cc1ccccc1)NC(=O)c1cnccn1)B(O)O [Bortezomib] | 70 | 10 | 10 | 15 | 17 |  | minimal effective concentration (TU-BcX-4IC tumoroids [8]): 0.01 µM; Efficacy at low concentrations (TU-BcX-4IC tumoroids [8]; library screen, tumoroid integrity by nuclear count): efficacy at low concentrations
6 | CC(=O)Nc1cccc(-n2c(=O)n(C3CC3)c(=O)c3c(Nc4ccc(I)cc4F)n(C)c(=O)c(C)c32)c1 [Trametinib] | 8820 | 7330 | 6270 | 2620 | 70 |  | 
7 | COc1cc(OC)cc(N(CCNC(C)C)c2ccc3ncc(-c4cnn(C)c4)nc3c2)c1 [erdafitinib] |  |  |  |  |  | effected by compounds | 
8 | O=C1c2c(O)ccc(O)c2C(=O)c2c(NCCNCCO)ccc(NCCNCCO)c21 [Mitoxantrone] |  |  |  |  |  | effected by compounds | Distance Score (TU-BcX-4IC tumoroids [6]): 6.688; Viability HIT? (TU-BcX-4IC tumoroids [8]): yes
